Tests used:
Type in all cases: biochemical
CDK4/cyclinD3 = molecular target: T1, CDK4/cyclinD3 (Homo sapiens, UniProt P11802); test: Cyclin-dependent kinase activity assay (continuous ATP coupling assay), CDK4/cyclinD3; settings: CDK4/cyclinD3 60 nM, ATP 500 μM, Rb copeptide 500 μM, 15 min preincubation, pH 7.5, 1% DMSO
T1 construct: purchased Carna Biosciences 04-105
Protocol: (§1) Cyclin-dependent kinase activity assay was measured by continuous ATP coupling assay in which ADP generated by kinase catalyzed phosphorylation was converted back to ATP by consuming phosphoenolpyruvate (PEP) and NADH catalyzed by pyruvate kinase/lactate dehydrogenase (PK/LDH). The assay compositions (see, Table 1) consist of one of the kinases, including CDK1/cyclinB1, CDK2/cyclinE1, CDK4/cyclinD3, and CDK6/cyclinD3 at the designated concentration, ATP at the corresponding Km of the kinase, copeptide and the ATP coupling system of PEP, NADH and PK/LDH. The assay was conducted in a reaction buffer of 20 mM Tris (pH 7.5) with 50 mM NaCl, 0.5 mM DTT and 0.04% BSA, and results were monitored continuously by fluorescence decrease of NADH with excitation at 340 nm and emission at 460 nm. Linear regression of the resulting reaction time traces gave reaction velocities.
(§2) For inhibition assay, compounds were first serial diluted in a 1:3 ratio from 10 μM to 0.05 nM using 10× reaction buffer. One of the CDK kinase was then introduced to compounds solution and incubated for 15 min. Finally, the compositions of ATP coupling system were introduced to the resulting solution to initiate the reaction. The final reaction mixture was in 1× reaction assay buffer with 1% DMSO. The half-maximal inhibition concentrations (IC50) for compounds were determined by fitting the plots of reaction velocity against compound concentration with 4-variable IC50 equation. The inhibition constants (Ki) were determined by fitting the same plots with quadratic/Morrison equation. Data were analyzed using commercially available software Graphpad Prism.
(§3) Exemplary results are presented as calculated IC50 values. • A: IC50≤10 nM • B: IC50>10 nM and IC50<100 nM • C: IC50≥100 nM

CDK1/cyclinB1 = molecular target: T2, CDK1/cyclinB1 (Homo sapiens, UniProt P06493); test: Cyclin-dependent kinase activity assay (continuous ATP coupling assay), CDK1/cyclinB1; settings: CDK1/cyclinB1 10 nM, ATP 200 μM, Histone1 copeptide 100 μM, 15 min preincubation, pH 7.5, 1% DMSO
T2 construct: purchased Carna Biosciences 04-102
Protocol: as §1, §2, §3

CDK2/cyclinE1 = molecular target: T3, CDK2/cyclinE1 (Homo sapiens, UniProt P24941); test: Cyclin-dependent kinase activity assay (continuous ATP coupling assay), CDK2/cyclinE1; settings: CDK2/cyclinE1 5 nM, ATP 300 μM, Rb copeptide 100 μM, 15 min preincubation, pH 7.5, 1% DMSO
T3 construct: purchased Carna Biosciences 04-165
Protocol: as §1, §2, §3

CDK6/cyclinD3 = molecular target: T4, CDK6/cyclinD3 (Homo sapiens, UniProt Q00534); test: Cyclin-dependent kinase activity assay (continuous ATP coupling assay), CDK6/cyclinD3; settings: CDK6/cyclinD3 25 nM, ATP 500 μM, Rb copeptide 500 μM, 15 min preincubation, pH 7.5, 1% DMSO
T4 construct: purchased Carna Biosciences 04-107
Protocol: as §1, §2, §3

T2 sequence (P06493 whole entry): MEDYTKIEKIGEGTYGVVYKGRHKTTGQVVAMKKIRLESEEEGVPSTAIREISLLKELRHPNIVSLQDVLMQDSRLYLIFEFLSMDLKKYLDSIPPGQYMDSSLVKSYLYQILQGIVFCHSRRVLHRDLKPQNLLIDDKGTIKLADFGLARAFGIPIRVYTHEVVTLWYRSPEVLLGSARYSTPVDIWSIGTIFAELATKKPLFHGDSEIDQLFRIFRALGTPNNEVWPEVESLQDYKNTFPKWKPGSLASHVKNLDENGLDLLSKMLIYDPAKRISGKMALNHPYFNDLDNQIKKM
T2 sequence (P14635 whole entry partner): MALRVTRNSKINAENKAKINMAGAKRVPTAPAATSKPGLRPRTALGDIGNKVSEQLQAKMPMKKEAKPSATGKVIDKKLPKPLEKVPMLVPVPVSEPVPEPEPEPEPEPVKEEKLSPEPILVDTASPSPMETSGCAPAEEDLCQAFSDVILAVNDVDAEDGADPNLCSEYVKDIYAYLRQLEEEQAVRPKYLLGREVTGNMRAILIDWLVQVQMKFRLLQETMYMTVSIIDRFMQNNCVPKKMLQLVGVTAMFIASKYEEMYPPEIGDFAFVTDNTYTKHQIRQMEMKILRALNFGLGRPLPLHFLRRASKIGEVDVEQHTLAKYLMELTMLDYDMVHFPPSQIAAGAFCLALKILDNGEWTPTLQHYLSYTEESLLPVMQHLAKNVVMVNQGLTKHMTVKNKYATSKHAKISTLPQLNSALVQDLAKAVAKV
T1 sequence (P11802 whole entry): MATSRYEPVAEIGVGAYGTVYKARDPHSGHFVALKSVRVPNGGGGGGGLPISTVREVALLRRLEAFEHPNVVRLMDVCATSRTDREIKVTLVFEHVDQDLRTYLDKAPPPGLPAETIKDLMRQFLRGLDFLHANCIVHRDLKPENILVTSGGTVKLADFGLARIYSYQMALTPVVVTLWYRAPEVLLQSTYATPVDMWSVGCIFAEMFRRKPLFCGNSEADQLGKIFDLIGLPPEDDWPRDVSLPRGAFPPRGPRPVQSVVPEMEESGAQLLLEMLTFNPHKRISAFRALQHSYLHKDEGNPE
T1 sequence (P30281 whole entry partner): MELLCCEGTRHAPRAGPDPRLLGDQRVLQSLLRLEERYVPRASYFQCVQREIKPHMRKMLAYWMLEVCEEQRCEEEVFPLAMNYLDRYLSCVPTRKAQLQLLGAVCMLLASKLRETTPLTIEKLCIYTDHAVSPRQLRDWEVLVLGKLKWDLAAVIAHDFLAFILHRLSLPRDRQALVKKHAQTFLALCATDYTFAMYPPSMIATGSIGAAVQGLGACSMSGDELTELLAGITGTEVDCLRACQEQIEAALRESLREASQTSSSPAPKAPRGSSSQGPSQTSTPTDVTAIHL
T4 sequence (Q00534 whole entry): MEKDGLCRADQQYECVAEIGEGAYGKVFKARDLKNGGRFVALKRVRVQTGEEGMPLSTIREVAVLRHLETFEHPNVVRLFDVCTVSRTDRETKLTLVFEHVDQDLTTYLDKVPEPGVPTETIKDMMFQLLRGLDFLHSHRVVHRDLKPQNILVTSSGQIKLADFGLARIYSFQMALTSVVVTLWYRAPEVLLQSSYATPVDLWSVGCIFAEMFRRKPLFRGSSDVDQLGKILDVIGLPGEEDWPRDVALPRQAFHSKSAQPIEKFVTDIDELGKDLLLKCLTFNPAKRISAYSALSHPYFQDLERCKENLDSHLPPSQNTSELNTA
T4 sequence (P30281 whole entry partner): as the sequence (P30281 whole entry partner) above

Row | SMILES | IC50 (CDK4/cyclinD3) | IC50 (CDK1/cyclinB1) | IC50 (CDK2/cyclinE1) | IC50 (CDK6/cyclinD3)
1 | CNS(=O)(=O)c1ccc(Nc2ncc(Cl)c(-n3cc(CC(C)(C)O)cn3)n2)cc1 [Example 65] | 10 to 100 nM | 10 to 100 nM | ≤ 10 nM | 10 to 100 nM
2 | O=S(=O)(NC1CC1)c1ccc(Nc2ncc(C(F)(F)F)c(-n3cccn3)n2)cc1 [Example 30] | ≥ 100 nM | ≥ 100 nM | 10 to 100 nM | ≥ 100 nM
3 | CNS(=O)(=O)c1ccc(Nc2ncc(C(F)(F)F)c(-n3cc(C4CNC4)cn3)n2)cc1 [Example 15] | 10 to 100 nM | 10 to 100 nM | ≤ 10 nM | 10 to 100 nM
4 | O=C1NCc2cc(Nc3ncc(C(F)(F)F)c(-n4cccn4)n3)ccc21 [Example 39] | ≥ 100 nM | ≥ 100 nM | ≥ 100 nM | ≥ 100 nM
5 | CNS(=O)(=O)c1ccc(Nc2ncc(C(F)(F)F)c(-n3cc([C@H]4C[C@@H](O)C4)cn3)n2)cc1 [Example 103, 4-[[4-[4-(3-hydroxycyclobutyl)pyrazol-1-yl]-5-(trifluoromethyl)pyrimidin-2-yl]amino]-N-methyl-benzene sulfonamide] | 10 to 100 nM | 10 to 100 nM | ≤ 10 nM | 10 to 100 nM
6 | CCS(=O)(=O)N1CC2(CC(Nc3ncc(C(F)(F)F)c(-n4cccn4)n3)C2)C1 [Example 32, 2-(ethyldioxo-λ6-sulfanyl)-6-{[4-(pyrazol-1-yl)-5-(trifluoromethyl)pyrimidin-2-yl]amino}-2-azaspiro[3.3]heptane] | ≥ 100 nM | ≥ 100 nM | ≥ 100 nM | ≥ 100 nM
7 | CC(O)Cc1cnn(-c2nc(NC3CCN(S(C)(=O)=O)CC3)ncc2C(F)(F)F)c1 (single isomer, unassigned) [Example 108] | 10 to 100 nM | ≥ 100 nM | 10 to 100 nM | 10 to 100 nM
8 | CN1CCC(N2CCN(c3ccc(Nc4ncc(C(F)(F)F)c(-n5cccn5)n4)cc3)CC2)CC1 [Example 33] | ≥ 100 nM | ≥ 100 nM | ≥ 100 nM | ≥ 100 nM
9 | CNS(=O)(=O)c1ccc(Nc2ncc(C(F)(F)F)c(-n3cc([C@@H]4CCC[C@@H]4O)cn3)n2)cc1 (single isomer, unassigned) [Example 76] | 10 to 100 nM | ≥ 100 nM | 10 to 100 nM | ≥ 100 nM
10 | O=S(=O)(NC1COC1)c1ccc(Nc2ncc(C(F)(F)F)c(-n3cccn3)n2)cc1 [Example 40] | ≥ 100 nM | ≥ 100 nM | ≤ 10 nM | ≥ 100 nM
11 | CNS(=O)(=O)c1ccc(Nc2ncc(C(F)(F)F)c(-n3cc(CN4CCNCC4)cn3)n2)cc1 [Example 84] | ≥ 100 nM | ≥ 100 nM | 10 to 100 nM | ≥ 100 nM
12 | O=S(=O)(NCCO)c1ccc(Nc2ncc(C(F)(F)F)c(-n3cccn3)n2)nc1 [Example 137] | ≥ 100 nM | ≥ 100 nM | ≥ 100 nM | ≥ 100 nM
13 | CNS(=O)(=O)c1ccc(Nc2ncc(C(F)(F)F)c(-n3cc(CC(C)(C)O)c(C)n3)n2)cc1 [Example 70] | ≥ 100 nM | ≥ 100 nM | 10 to 100 nM | ≥ 100 nM
14 | [2H]C([2H])([2H])NS(=O)(=O)c1ccc(Nc2ncc(C(F)(F)F)c(-n3ccc(C(F)(F)F)n3)n2)cc1 [Example 54] | ≥ 100 nM | ≥ 100 nM | 10 to 100 nM | ≥ 100 nM
15 | CN1CCC(NS(=O)(=O)c2ccc(Nc3ncc(C(F)(F)F)c(-n4cccn4)n3)cc2)CC1 [Example 35] | 10 to 100 nM | ≥ 100 nM | ≤ 10 nM | ≥ 100 nM
16 | O=S(=O)(NCC1(CO)CC1)c1ccc(Nc2ncc(C(F)(F)F)c(-n3cccn3)n2)cc1 [Example 132] | ≥ 100 nM | ≥ 100 nM | 10 to 100 nM | ≥ 100 nM
17 | O=S(=O)(NCCO)c1ccc(Nc2ncc(C(F)(F)F)c(-n3cccn3)n2)cn1 [Example 136, N-(2-hydroxyethyl)-5-[[4-pyrazol-1-yl-5-(trifluoromethyl)pyrimidin-2-yl]amino]pyridine-2-sulfonamide] | ≥ 100 nM | ≥ 100 nM | ≤ 10 nM | ≥ 100 nM

— US20260308145A1, “CDK2 INHIBITORS AND METHODS OF USING SAME” (Shenzhen lonova Life Science Co., Ltd., priority 2023, published 2026)
